# From patent USRE39616E1, “Aminoindan derivatives” (priority 1996, dated 2007)
# Structures can show the parent of a compound that is named as a salt. Where two headings read alike, the source gives them in different places.
# How the values were obtained:
# [1] = target: T1, MAO-A (Mus musculus, UniProt Q64133); assay: Inhibition of MAO activity ex vivo (brain); format: in vivo, mice
# T1 construct: from tissue; host or cells: mouse brain
# T1 sequence (Q64133 1-526): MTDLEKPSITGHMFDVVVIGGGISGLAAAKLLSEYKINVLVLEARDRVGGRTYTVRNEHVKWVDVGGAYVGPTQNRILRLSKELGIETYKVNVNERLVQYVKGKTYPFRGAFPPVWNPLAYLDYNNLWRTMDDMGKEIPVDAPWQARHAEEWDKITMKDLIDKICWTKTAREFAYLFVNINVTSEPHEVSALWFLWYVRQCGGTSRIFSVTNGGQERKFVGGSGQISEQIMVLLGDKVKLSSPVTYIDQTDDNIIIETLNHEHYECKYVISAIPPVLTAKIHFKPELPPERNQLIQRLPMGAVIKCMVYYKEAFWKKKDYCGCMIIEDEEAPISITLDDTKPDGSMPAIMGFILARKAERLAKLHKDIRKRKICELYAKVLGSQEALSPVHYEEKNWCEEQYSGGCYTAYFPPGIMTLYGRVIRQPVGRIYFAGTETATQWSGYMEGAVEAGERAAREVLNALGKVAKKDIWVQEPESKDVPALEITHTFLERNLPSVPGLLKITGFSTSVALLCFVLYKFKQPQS
# Method in brief: (§1)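 Male Sabra mice dosed with compound in 0.9% saline (2-3 per dose) and killed 2 h post-dose or at peak AChE-inhibition time. Brain homogenized in 0.3 M sucrose and assayed for MAO activity with 50 μM PEA (MAO-B) or 1 mM 5-HT (MAO-A) as substrate.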
# [2] = target: T2, MAO-B (Mus musculus, UniProt Q8BW75); assay: Inhibition of MAO activity ex vivo (brain); format: in vivo, mice
# T2 construct: from tissue; host or cells: mouse brain
# T2 sequence (Q8BW75 1-520): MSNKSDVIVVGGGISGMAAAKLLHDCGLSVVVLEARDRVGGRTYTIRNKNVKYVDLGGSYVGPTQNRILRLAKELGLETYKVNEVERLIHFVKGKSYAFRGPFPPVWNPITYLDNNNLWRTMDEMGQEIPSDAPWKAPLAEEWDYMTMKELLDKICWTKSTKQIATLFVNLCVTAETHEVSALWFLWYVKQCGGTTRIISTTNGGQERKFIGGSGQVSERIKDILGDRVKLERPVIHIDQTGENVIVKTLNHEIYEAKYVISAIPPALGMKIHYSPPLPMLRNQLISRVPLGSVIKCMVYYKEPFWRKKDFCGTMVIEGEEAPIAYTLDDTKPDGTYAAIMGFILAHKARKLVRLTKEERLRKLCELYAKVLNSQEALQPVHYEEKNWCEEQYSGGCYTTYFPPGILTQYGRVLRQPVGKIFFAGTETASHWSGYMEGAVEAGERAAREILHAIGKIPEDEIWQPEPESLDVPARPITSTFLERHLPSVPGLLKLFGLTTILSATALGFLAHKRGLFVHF
# Method in brief: as §1
# [3] = test system: mice, hypobaric hypoxic model; assay: animal or person; format: in vivo; settings: Mus musculus; for response vs control in vivo at 8 mg/kg: read-out: Protection (survival time), 8 mg/kg sc, 60 min before hypoxia
# From the text: A 12 liter desiccator (desiccator A) and a 2.5 liter desiccator (desiccator B) were separately connected to a vacuum pump. Desiccator B was disconnected and allowed to equilibrate with room air whilst desiccator A was evacuated to a pressure of 100 mmHg. Four male ICR albino mice (22-28 g) were placed in desiccator B. Desiccator B was then closed to room air and connected to desiccator A. The pressure inside desiccator B was monitored using a mercury manometer and at the point were the pressure in desiccator B reached 200 mmpg (usually within 14 seconds), the two desiccators were disconnected from the vacuum pump and the pump switched off. The survival time from the moment of induction of hypoxia to the time of cessation of respiration was recorded for each mouse for a maximum of 15 minutes after which time room air was reintroduced to desiccator B. Survivors were monitored for signs of lethargy or vitality.
# Effect of drug treatment was assessed as the percent of the survival time of the drug treated group with respect to the saline injected or vehicle injected control group. […] The effect of each dose of test drug was determined in duplicate i.e. two groups of 4 mice.
# Positive reference drugs were sodium pentobarbital at a dose of 40 mg/kg, and diazepam 10 mg/kg given 0.5 h prior to hypoxia, physostigmine 0.2 and 0.4 mg/kg and neostigmine 0.2 mg/kg given sc 30 min before hypoxia. Methyl atropine 1 mg/kg was given sc. 10 min. before physostigmine.
# Test drugs were dissolved in 0.9% saline, and injected sc. in the nip of the neck at a dose in accordance with body weight, 60-90 min. before hypoxia. The volume of injection was 0.2-0.3 mL per mouse (10 mL/kg). The initial dose was about one third of the reported LD50 for acetylcholine esterase inhibition. If no protection could be obtained, the dose was further increased to the nearest non-toxic dose. In case of protection, the dose was further reduced in an attempt to locate the “protective” dose range.
# [4] = test system: mice
# Experimental: Therapeutic Ratio was calculated as LD50 divided by ED50 of ex vivo acetylcholine esterase inhibition.
# [5] = target: T3, MAO-A (Rattus norvegicus, UniProt P21396); assay: Inhibition of MAO activity in vitro, 5-HT as substrate; format: biochemical; design: The MAO enzyme source was a homogenate of rat brain in 0.3M sucrose; from tissue; host or cells: rat brain homogenate, 600 g supernatant
# T3 sequence (P21396 1-526): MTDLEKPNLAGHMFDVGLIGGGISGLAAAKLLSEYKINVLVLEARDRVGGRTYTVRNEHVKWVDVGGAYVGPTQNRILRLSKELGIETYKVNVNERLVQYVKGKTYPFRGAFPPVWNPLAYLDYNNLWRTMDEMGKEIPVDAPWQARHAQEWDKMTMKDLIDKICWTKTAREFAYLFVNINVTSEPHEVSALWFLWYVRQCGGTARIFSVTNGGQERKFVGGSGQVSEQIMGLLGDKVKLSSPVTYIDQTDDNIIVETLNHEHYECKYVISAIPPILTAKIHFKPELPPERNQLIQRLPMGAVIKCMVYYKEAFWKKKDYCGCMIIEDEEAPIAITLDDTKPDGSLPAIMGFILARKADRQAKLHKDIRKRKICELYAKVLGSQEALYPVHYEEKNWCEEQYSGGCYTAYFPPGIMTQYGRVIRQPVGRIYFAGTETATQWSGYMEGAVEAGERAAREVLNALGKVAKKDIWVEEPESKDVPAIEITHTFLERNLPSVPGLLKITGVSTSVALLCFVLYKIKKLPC
# Experimental: Substrate concentrations used were 50 μM (PEA) and 1 mM (5-HT).
# [6] = sc, read-out: Protection (survival time), 50 mg/kg sc, 60 min before hypoxia
# [7] = MAO-A Inhibition In vitro IC50, rat brain homogenate, 5-HT substrate
# [8] = mice, within 6 hours after administration
Compound,"MAO-A Inhibition Ex vivo ED50 ([1]; mice, brain tissue)","MAO-B Inhibition Ex vivo ED50 ([2]; mice, brain tissue)","response vs control in vivo at 50 mg/kg [3, 6]","Acute Toxicity LD50 (LD) ([4]; mouse, in vivo)","IC50 [5, 7]","Therapeutic Ratio LD/AC ([4]; mouse, in vivo)","Acute Toxicity LD50 (LD) [4, 8]",response vs control in vivo at 8 mg/kg ([3]; sc),further results
"C#CCNC1CCc2ccc(OC(=O)N(C)C)cc21 (centres unmarked) [Compound 24, 6-(N,N-Dimethylcarbamyloxy)-N-propargyl aminoindan mesylate]",>120 µmol/kg,100 µmol/kg,738%,179 µmol/kg,850 µM,,,,"response vs control in vivo at 21 mg/kg ([3]; sc, read-out: Protection (survival time), 21 mg/kg sc, 60 min before hypoxia): 269 ± 166%"
C#CCN(C)C1CCc2ccc(OC(=O)N(C)C)cc21 (centres unmarked) [Compound 29],50 µmol/kg,30 µmol/kg,,500 µmol/kg,40 µM,9.3,,,"response vs control in vivo at 25 mg/kg ([3]; sc, read-out: Protection (survival time), 25 mg/kg sc, 30 min before hypoxia): 273 ± 183%; response vs control in vivo at 25 mg/kg ([3]; sc, read-out: Protection (survival time), 25 mg/kg sc, 60 min before hypoxia): 131 ± 56%; response vs control in vivo at 53 mg/kg ([3]; sc, read-out: Protection (survival time), 53 mg/kg sc, 60 min before hypoxia): 638 ± 10%; response vs control in vivo at 77 mg/kg ([3]; sc, read-out: Protection (survival time), 77 mg/kg sc, 60 min before hypoxia): 508 ± 206%"
CCN(C)C(=O)Oc1ccc2c(c1)C(NC)CC2 (centres unmarked) [Compound 10],>175 µmol/kg,>175 µmol/kg,,,,,740 µmol/kg,,"response vs control in vivo at 10 mg/kg ([3]; sc, read-out: Protection (survival time), 10 mg/kg sc, 90 min before hypoxia): 304 ± 129%; response vs control in vivo at 25 mg/kg ([3]; sc, read-out: Protection (survival time), 25 mg/kg sc, 90 min before hypoxia): 700 ± 201%; response vs control in vivo at 50 mg/kg ([3]; sc, read-out: Protection (survival time), 50 mg/kg sc, 90 min before hypoxia): 705 ± 101%; IC50 ([5]; rat brain homogenate, 5-HT substrate, read-out: MAO-A Inhibition In vitro IC50): 22 µM"
CN(C)C(=O)Oc1ccc2c(c1)C(N)CC2 (centres unmarked) [Compound 1],>>80 μmoles/kg,>>80 μmoles/kg,,,75 µM,,83.8 µmol/kg,637 ± 116%,"response vs control in vivo at 2 mg/kg ([3]; sc, read-out: Protection (survival time), 2 mg/kg sc, 60 min before hypoxia): 120 ± 51%; response vs control in vivo at 4 mg/kg ([3]; sc, read-out: Protection (survival time), 4 mg/kg sc, 60 min before hypoxia): 470 ± 200%"
C#CCNC1CCc2cccc(OC(=O)N(C)C)c21 (centres unmarked) [Compound 27],>>160 μmoles/kg,>>160 μmoles/kg,455 ± 23%,300 µmol/kg,> 1000 µM,10,,119 ± 45%,"response vs control in vivo at 3 mg/kg ([3]; sc, read-out: Protection (survival time), 3 mg/kg sc, 60 min before hypoxia): 287 ± 319%; response vs control in vivo at 15 mg/kg ([3]; sc, read-out: Protection (survival time), 15 mg/kg sc, 60 min before hypoxia): 143 ± 56%"
"C#CCNC1CCc2ccc(OC(=O)N(C)CC)cc21 (centres unmarked) [Compound 25, 6-(N-Me, N-Etcarbamyloxy) N-propargyl aminoindan, HCl]",,,,,,10.8,1400 µmol/kg,,"MAO-A Inhibition Ex vivo ED50 ([1]; mouse, in vivo): >>350 μmoles/kg; MAO-B Inhibition Ex vivo ED50 ([2]; mouse, in vivo): 200 µmol/kg; response vs control in vivo at 25 mg/kg ([3]; 25 mg/kg sc, 60 min before hypoxia, read-out: Protection (survival time)): 84 ± 35%; response vs control in vivo at 50 mg/kg ([3]; 50 mg/kg sc, 60 min before hypoxia, read-out: Protection (survival time)): 380 ± 231%; response vs control in vivo at 75 mg/kg ([3]; 75 mg/kg sc, 60 min before hypoxia, read-out: Protection (survival time)): 559 ± 225%; response vs control in vivo at 100 mg/kg ([3]; 100 mg/kg sc, 60 min before hypoxia, read-out: Protection (survival time)): 761 ± 91%; IC50 ([5]; MAO-A Inhibition In vitro IC50): 270 µM"
